Reference: patent publication US20090246292A1, “ANTIMICROBIAL FORMULATIONS COMPRISING A QUINONE AND A COPPER SALT” (priority 2006, published 2009)
Where two headings read alike, the source gives them in different places.

Tests used:
[1] = test system: S. aureus ATCC 29213; assay: Disc diffusion assay (DDA), also supplemented
[2] = test system: P. acnes NCTC 737; assay: Disc diffusion assay (DDA), also supplemented;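 further: paper disc carrying compound placed on inoculated Wilkins-Chalgren Anaerobe agar pH 6.0, with lipid or NaCl supplement where listed, anaerobic 37 °C for 72 h, inhibition zone diameter read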
Method: (§6) The propionibacteria were cultured and maintained on Wilkins-Chalgren Anaerobe Medium (agar and broth) at pH 6.0; all cultures were incubated anaerobically at 37° C. for 72 hours.
(d) Disc Diffusion Assay (DDA)
A sterile paper disc was impregnated with a sample of the test compound in a suitable solvent and 30 minutes allowed for the solvents to evaporate (where possible). The disc was then placed on an agar plate onto which the test micro-organism had been inoculated. The plate was then incubated under the conditions described above, following which it was examined visually for signs of bacterial growth. […] The diameter of this zone of “inhibition” was measured using a ProtoCOL™ automated zone sizer (Synbiosis, Cambridge, UK).
(f) Supplemented Disc Diffusion Assays
(§7) For assays using Propionibacterium spp. strains the supplements used in the examples below were lipid (either Tween™ 80 or triolein, both at 1% v/v) and sodium chloride (100 mM).

[3] = test system: S. aureus ATCC 29213; assay: Minimum bactericidal concentration (MBC) assay; format: cell-based, Staphylococcus aureus
Method: (§1) (b) Minimum Bactericidal Concentration (MBC) Assay
(§2) Following incubation they were examined visually for bacterial growth.

[4] = test system: P. acnes NCTC 737; assay: Minimum inhibitory concentration (MIC) assay; format: cell-based, Propionibacterium acnes
Source text: (§3) (a) Minimum Inhibitory Concentration (MIC) Assay
(§4) The culture media were as described above.
(§5) The assays included both negative (culture medium with no micro-organisms) and positive (culture medium plus diluting solvent plus micro-organism) controls.

[5] = test system: S. aureus ATCC 29213; assay: Synergy disc diffusion assay (SDDA), also supplemented;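 further: disc diffusion on Mueller-Hinton agar at pH 7.2, aerobic incubation at 37 °C lasting 19-20 h, two compounds assessed jointly for combined antimicrobial effect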
[6] = test system: P. acnes NCTC 737; assay: Minimum bactericidal concentration (MBC) assay; format: cell-based, Propionibacterium acnes
Method: as §1, §2

[7] = test system: S. aureus ATCC 29213; assay: Minimum inhibitory concentration (MIC) assay; format: cell-based, Staphylococcus aureus
Source text: as §3, §4, §5

[8] = test system: P. acnes NCTC 737; assay: Synergy disc diffusion assay (SDDA), also supplemented
Method: as §6
(e) Synergy Disc Diffusion Assay (SDDA)
This is a variation on the DDA method, in which two compounds are tested together for their combined antimicrobial activity.
Two test compounds A and B were placed on a single paper disc and the above described DDA procedure repeated.
(f) Supplemented Disc Diffusion Assays
as §7

[9] = copper salt alone, 200 μg per disc (silicate 62 μg), Tween 80 at 1% v/v
[10] = copper salt alone, 200 μg per disc (silicate 62 μg), salt and horse serum (5% v/v)
[11] = copper salt alone, 200 μg per disc (silicate 62 μg), sodium chloride (100 mM)
[12] = copper salt alone, 200 μg per disc (silicate 62 μg), 1% (v/v) Tween 80
[13] = copper salt alone, 200 μg per disc (silicate 62 μg), salt and 1% (v/v) Tween 80
[14] = copper salt alone, S. aureus ATCC 29213
[15] = copper salt alone, P. acnes NCTC 737
[16] = copper salt + TBHQ on one disc, 200 μg of each (silicate 62 μg), salt and serum supplements
[17] = copper salt + TBHQ on one disc, 200 μg of each (silicate 62 μg), unsupplemented
[18] = copper salt + TBHQ vs larger zone of either compound alone, unsupplemented
[19] = copper salt + TBHQ, salt and serum supplements
[20] = copper salt + TBHQ, unsupplemented
[21] = copper salt + TBHQ on one disc, 200 μg of each (silicate 62 μg), salt and lipid (1% (v/v) Tween 80)
[22] = copper salt + TBHQ, salt and lipid (1% (v/v) Tween 80)

SMILES: CC(=O)[O-].[Cu+] [Copper (I) acetate]
- DDA [1]: 0 mm
- DDA + lipid [1]: 0 mm
- DDA + salt [1]: 0 mm
- DDA + salt & serum [1]: 0 mm
- DDA [2]: 52.04 mm
- DDA + lipid [2]: 45.46 mm
- DDA + salt [2]: 49.48 mm
- DDA + salt & lipid [2]: 52.15 mm
- MBC [3]: >250 µg/mL
- MIC [4]: 7.8 µg/mL
- MIC/MBC ratio [4]: 0.25
- SDDA area increase [5]: 16.25%
- SDDA increase [5]: 3.16 mm
- SDDA with TBHQ [5]: 43.58 mm
- SS SDDA area increase [5]: −51.82%
- SS SDDA increase [5]: −13.36 mm
- SS SDDA with TBHQ [5]: 30.32 mm
- MBC [6]: 31.25 µg/mL
- MIC [7]: >250 µg/mL
- SDDA area increase [8]: 84.62%
- SDDA increase [8]: 18.67 mm
- SDDA with TBHQ [8]: 70.71 mm
- SL SDDA area increase [8]: 59.77%
- SL SDDA increase [8]: 13.77 mm
- SL SDDA with TBHQ [8]: 65.91 mm

SMILES: [Cu][Br] [Copper (I) bromide]
- DDA + lipid [1, 9]: 0 mm
- DDA + salt & serum [1, 10]: 0 mm
- DDA + salt [1, 11]: 0 mm
- DDA + lipid [2, 12]: 43.92 mm
- DDA + salt & lipid [2, 13]: 43.70 mm
- DDA + salt [2, 11]: 29.38 mm
- MBC [3, 14]: >250 µg/mL
- MIC [4, 15]: 15.6 µg/mL
- MIC/MBC ratio [4, 15]: 0.125
- SS SDDA with TBHQ [5, 16]: 46.42 mm
- SDDA with TBHQ [5, 17]: 55.37 mm
- SDDA increase [5, 18]: 14.95 mm
- SS SDDA area increase [5, 19]: 12.94%
- SS SDDA increase [5, 19]: 2.74 mm
- SDDA area increase [5, 20]: 87.65%
- MBC [6, 15]: 125 µg/mL
- MIC [7, 14]: >250 µg/mL
- SL SDDA with TBHQ [8, 21]: 56.01 mm
- SDDA with TBHQ [8, 17]: 54.65 mm
- SDDA increase [8, 18]: 15.44 mm
- SL SDDA area increase [8, 22]: 64.26%
- SL SDDA increase [8, 22]: 12.31 mm
- SDDA area increase [8, 20]: 94.26%

SMILES: [Cu+].[I-] [Copper (I) iodide]
- DDA + lipid [1, 9]: 0 mm
- DDA + salt & serum [1, 10]: 0 mm
- DDA + salt [1, 11]: 0 mm
- DDA + lipid [2, 12]: 34.64 mm
- DDA + salt & lipid [2, 13]: 46.20 mm
- DDA + salt [2, 11]: 43.92 mm
- MBC [3, 14]: >250 µg/mL
- MIC [4, 15]: 7.8 µg/mL
- MIC/MBC ratio [4, 15]: 0.25
- SS SDDA with TBHQ [5, 16]: 45.26 mm
- SDDA with TBHQ [5, 17]: 52.74 mm
- SDDA increase [5, 18]: 12.32 mm
- SS SDDA area increase [5, 19]: 7.37%
- SS SDDA increase [5, 19]: 1.58 mm
- SDDA area increase [5, 20]: 70.25%
- MBC [6, 15]: 31.25 µg/mL
- MIC [7, 14]: >250 µg/mL
- SL SDDA with TBHQ [8, 21]: 64.77 mm
- SDDA with TBHQ [8, 17]: 70.08 mm
- SDDA increase [8, 18]: 21.48 mm
- SL SDDA area increase [8, 22]: 96.51%
- SL SDDA increase [8, 22]: 18.56 mm
- SDDA area increase [8, 20]: 107.92%

SMILES: CC(=O)[O-].CC(=O)[O-].[Cu+2] [Copper (II) acetate]
- DDA [1]: 0 mm
- DDA + lipid [1]: 0 mm
- DDA + salt [1]: 0 mm
- DDA + salt & serum [1]: 0 mm
- DDA [2]: 53.61 mm
- DDA + lipid [2]: 42.06 mm
- DDA + salt [2]: 48.25 mm
- DDA + salt & lipid [2]: 49.54 mm
- MBC [3]: >250 µg/mL
- MIC [4]: 7.8 µg/mL
- MIC/MBC ratio [4]: 0.25
- SDDA area increase [5]: 1.59%
- SDDA increase [5]: 0.32 mm
- SDDA with TBHQ [5]: 40.74 mm
- SS SDDA area increase [5]: −57.34%
- SS SDDA increase [5]: −15.15 mm
- SS SDDA with TBHQ [5]: 28.53 mm
- MBC [6]: 31.25 µg/mL
- MIC [7]: >250 µg/mL
- SDDA area increase [8]: 56%
- SDDA increase [8]: 13.35 mm
- SDDA with TBHQ [8]: 66.96 mm
- SL SDDA area increase [8]: 64.92%
- SL SDDA increase [8]: 14.08 mm
- SL SDDA with TBHQ [8]: 63.62 mm

SMILES: CC(=O)Oc1ccccc1C(=O)[O-].CC(=O)Oc1ccccc1C(=O)[O-].CC(=O)Oc1ccccc1C(=O)[O-].CC(=O)Oc1ccccc1C(=O)[O-].[Cu+2].[Cu+2] [Copper (II) aspirinate]
- DDA [1]: 0 mm
- DDA + lipid [1, 9]: 0 mm
- DDA + salt & serum [1, 10]: 0 mm
- DDA + salt [1, 11]: 0 mm
- DDA [2]: 44.32 mm
- DDA + lipid [2, 12]: 36.19 mm
- DDA + salt & lipid [2, 13]: 47.45 mm
- DDA + salt [2, 11]: 40.21 mm
- MBC [3, 14]: >250 µg/mL
- MIC [4, 15]: 15.6 µg/mL
- SS SDDA with TBHQ [5, 16]: 56.95 mm
- SDDA with TBHQ [5, 17]: 69.05 mm
- SDDA increase [5, 18]: 28.63 mm
- SS SDDA area increase [5, 19]: 69.99%
- SS SDDA increase [5, 19]: 13.27 mm
- SDDA area increase [5, 20]: 191.83%
- MBC [6, 15]: 62.5 µg/mL
- MIC [7, 14]: 125 µg/mL
- MIC/MBC ratio [7, 14]: <0.5
- SL SDDA with TBHQ [8, 21]: 58.93 mm
- SDDA with TBHQ [8, 17]: 60.80 mm
- SDDA increase [8, 18]: 16.48 mm
- SL SDDA area increase [8, 22]: 54.20%
- SL SDDA increase [8, 22]: 11.47 mm
- SDDA area increase [8, 20]: 88.19%

SMILES: O=S(=O)([O-])[O-].[Cu+2] [Copper (II) sulphate, copper (II) sulphate]
- (S)DDA [1]: 0 mm
- SS (S)DDA [1]: 0 mm
- activity of copper salt alone (in words) [1]: inactive
- (S)DDA [2]: 51.73 (±1.48) mm
- SL (S)DDA [2]: 51.10 (±3.17) mm
- MBC [3]: 1000 µg/mL
- MIC [4]: 15.6 µg/mL
- MIC/MBC ratio [4]: 0.5
- MBC [6]: 31.25 µg/mL
- MIC [7]: 1000 μml
- MIC/MBC ratio [7]: 1
